Reference: EP0326331B1, “Substituted quinolines and cinnolines” (Dow AgroSciences LLC, priority 1988, dated 1989)

Experiments:
Format in all cases: in vivo
[1] = tested on: Septoria tritici (leaf blotch); assay: Test 1 greenhouse foliar spray screen, leaf blotch on wheat; conditions: disease control rating, foliar spray on wheat, 400 ppm (+++ at 100 ppm)
[2] = tested on: southern armyworm (Spodopetra eridania Cramer); assay: Mite/insect screen, SAW; conditions: Spodoptera eridania, percent mortality, SAW, read-out: SAW RESULTS %; for mortality at 200 ppm: SM & MA RATE 200 PPM; for mortality at 400 ppm: SM & MA RATE 400 PPM
Procedure, shortened: (§1)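 Read-out: percent mortality after standard exposure periods. Test solutions were water dilutions of compound dissolved in acetone/alcohol (50:50) with emulsifier blends; leaves were sprayed to runoff on both surfaces and air-dried for one hour before exposure.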

[3] = tested on: Pseudoperonospora cubensis (downy mildew); assay: Test 1 greenhouse foliar spray screen, downy mildew on squash; conditions: disease control rating, foliar spray on squash, 400 ppm (+++ at 100 ppm)
[4] = tested on: Cercospora beticola (leaf spot); assay: Test 1 greenhouse foliar spray screen, leaf spot on sugar beet; conditions: disease control rating, foliar spray on sugar beet, 400 ppm (+++ at 100 ppm)
[5] = tested on: melon aphids (Aphis gossypii Glover); assay: Mite/insect screen, MA; conditions: Aphis gossypii, percent mortality, SAW, read-out: MA RESULTS %; for mortality at 200 ppm: SM & MA RATE 200 PPM; for mortality at 400 ppm: SM & MA RATE 400 PPM
Procedure, shortened: as §1

[6] = tested on: Erysiphe graminis tritici (powdery mildew); assay: Test 1 greenhouse foliar spray screen, powdery mildew on wheat; conditions: disease control rating, foliar spray on wheat, 400 ppm (+++ at 100 ppm)
[7] = tested on: Puccinia recondita tritici (leaf rust); assay: Test 1 greenhouse foliar spray screen, leaf rust on wheat; conditions: disease control rating, foliar spray on wheat, 400 ppm (+++ at 100 ppm)
[8] = tested on: corn rootworm; assay: Mite/insect screen, CRW; conditions: percent mortality, read-out: CRW RESULTS %; for mortality at 12 ppm: CRW RATE 12.00 PPM; for mortality at 24 ppm: CRW RATE 24.00 PPM
Procedure, shortened: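 Read-out: % mortality after standard exposure. Formulation: acetone/alcohol (50:50) with emulsifiers at 23 g and 13 g per liter, water-diluted to final test levels.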

[9] = tested on: Pyricularia oryzae (rice blast); assay: whole plant or invertebrate; conditions: for RICE BLAST: disease control rating, foliar spray on rice, 400 ppm (+++ at 100 ppm)
[10] = tested on: Venturia inaequalis (apple scab); assay: Test 1 greenhouse foliar spray screen, apple scab on apple seedling; conditions: disease control rating, foliar spray on apple seedling, 400 ppm (+++ at 100 ppm)
[11] = tested on: Twospotted spider mites (Tetranychus urticae Koch); assay: Mite/insect screen, SM; conditions: for mortality at 200 ppm / mortality at 400 ppm: Tetranychus urticae, percent mortality, SAW, read-out: SM RESULTS %; for mortality at 200 ppm: SM & MA RATE 200 PPM; for mortality at 400 ppm: SM & MA RATE 400 PPM; for activity as miticides: summary statement in the description
Procedure, shortened: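 Foliar spray to runoff (10 psi), 1 h drying; aqueous dilutions from acetone/alcohol emulsifier stock. Mortality (%) after standard exposure.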

[12] = tested on: Botrytis cinerea (gray mold); assay: Test 1 greenhouse foliar spray screen, gray mold on grape berries; conditions: disease control rating, spray on grape berries, 400 ppm (+++ at 100 ppm)

SMILES | LEAF BLOT [1] | mortality at 200 ppm [2] [%] | mortality at 400 ppm [2] [%] | DOWN MDEW [3] | LEAF SPOT [4] | mortality at 200 ppm [5] [%] | mortality at 400 ppm [5] [%] | POWD MDEW [6] | LEAF RUST [7] | mortality at 12 ppm [8] [%] | mortality at 24 ppm [8] [%] | RICE BLAST [9] | APPL SCAB [10] | mortality at 200 ppm [11] [%] | mortality at 400 ppm [11] [%] | GRAY MOLD [12] | activity as miticides [11] | activity against rice blast ([9]; summary statement in the description)
Clc1ccc2c(NCCc3ccc(Cl)c(Cl)c3)ccnc2c1 [Example 101, 7-chloro-N-[2-(3,4-dichlorophenyl)ethyl]-4-quinolinamine] | - (0-19% control at 400 ppm) | 0 | 0 | +++ (90-100% control at 100 ppm) | +++ (90-100% control at 100 ppm) | 0 | 0 | +++ (90-100% control at 100 ppm) | + (20-89% control at 400 ppm) | 0 | 0 | - (0-19% control at 400 ppm) | + (20-89% control at 400 ppm) | 0 | 0 | - (0-19% control at 400 ppm) | – | –
Fc1cccc(Cl)c1CCNc1ccnc2c(F)cccc12 [Example 103, N-[2-(2-chloro-6-fluorophenyl)ethyl]-8-fluoro-4-quinolinamine] | + (20-89% control at 400 ppm) | 0 | 0 | +++ (90-100% control at 100 ppm) | + (20-89% control at 400 ppm) | 0 | 0 | + (20-89% control at 400 ppm) | ++ (90-100% control at 400 ppm) | 0 | 0 | ++ (90-100% control at 400 ppm) | +++ (90-100% control at 100 ppm) | 0 | 0 | - (0-19% control at 400 ppm) | – | –
FC(F)(F)c1ccc2c(NCCc3ccc(Cl)cc3Cl)ccnc2c1 [Example 104, N-[2-(2,4-dichlorophenyl)ethyl]-7-(trifluoromethyl)-4-quinolinamine] | - (0-19% control at 400 ppm) | 0 | 60 | ++ (90-100% control at 400 ppm) | + (20-89% control at 400 ppm) | 0 | 0 | - (0-19% control at 400 ppm) | - (0-19% control at 400 ppm) | 0 | 0 | - (0-19% control at 400 ppm) | + (20-89% control at 400 ppm) | 0 | 0 | - (0-19% control at 400 ppm) | – | –
CCN(CCc1ccc(Cl)cc1)c1ccnc2c(F)cccc12 [Example 105, N-[2-(4-chlorophenyl)ethyl]-N-ethyl-8-fluoro-4-quinolinamine] | + (20-89% control at 400 ppm) | 30 | 0 | +++ (90-100% control at 100 ppm) | + (20-89% control at 400 ppm) | 80 | 50 | +++ (90-100% control at 100 ppm) | +++ (90-100% control at 100 ppm) | 0 | 0 | ++ (90-100% control at 400 ppm) | - (0-19% control at 400 ppm) | 100 | 0 | - (0-19% control at 400 ppm) | particularly excellent activity | –
CN(c1ccc(F)cc1)c1ccnc2cc(Cl)ccc12 [Example 106, 7-chloro-N-(4-fluorophenyl)-N-methyl-4-quinolinamine] | + (20-89% control at 400 ppm) | – | 0 | + (20-89% control at 400 ppm) | + (20-89% control at 400 ppm) | – | 0 | ++ (90-100% control at 400 ppm) | + (20-89% control at 400 ppm) | – | 0 | + (20-89% control at 400 ppm) | - (0-19% control at 400 ppm) | – | 0 | - (0-19% control at 400 ppm) | – | –
FC(F)(F)c1cccc(CCNc2ccnc3cc(Cl)ccc23)c1 [Example 107, 7-chloro-N-[2-[3-(trifluoromethyl)phenyl]ethyl]-4-quinolinamine] | - (0-19% control at 400 ppm) | 0 | 0 | +++ (90-100% control at 100 ppm) | - (0-19% control at 400 ppm) | 0 | 0 | ++ (90-100% control at 400 ppm) | + (20-89% control at 400 ppm) | 0 | 0 | + (20-89% control at 400 ppm) | - (0-19% control at 400 ppm) | 0 | 0 | - (0-19% control at 400 ppm) | – | –
Fc1cccc2c(NCCc3cccc(Br)c3)ccnc12 [Example 108, N-[2-(3-bromophenyl)ethyl]-8-fluoro-4-quinolinamine] | +++ (90-100% control at 100 ppm) | 0 | – | + (20-89% control at 400 ppm) | - (0-19% control at 400 ppm) | 0 | – | + (20-89% control at 400 ppm) | ++ (90-100% control at 400 ppm) | 0 | – | + (20-89% control at 400 ppm) | - (0-19% control at 400 ppm) | 0 | – | - (0-19% control at 400 ppm) | – | –
CC(C)(C)c1ccc(CCNc2ccnc3c(F)cccc23)cc1 [Example 111, N-[2-[4-(t-butyl)phenyl]ethyl]--8-fluoro-4-quinolinamine] | +++ (90-100% control at 100 ppm) | 20 | 20 | +++ (90-100% control at 100 ppm) | - (0-19% control at 400 ppm) | 0 | 0 | + (20-89% control at 400 ppm) | +++ (90-100% control at 100 ppm) | 0 | 0 | ++ (90-100% control at 400 ppm) | - (0-19% control at 400 ppm) | 90 | 80 | - (0-19% control at 400 ppm) | particularly excellent activity | particularly excellent activity
Fc1cccc2c(NCCc3ccc(-c4ccccc4)cc3)ccnc12 [Example 113, N-[2-(1,1-biphenyl)-4-yl-ethyl]-8-fluoro-4-quinolinamine] | +++ (90-100% control at 100 ppm) | 100 | 70 | +++ (90-100% control at 100 ppm) | - (0-19% control at 400 ppm) | 0 | 0 | + (20-89% control at 400 ppm) | +++ (90-100% control at 100 ppm) | 0 | 100 | +++ (90-100% control at 100 ppm) | - (0-19% control at 400 ppm) | 40 | 0 | - (0-19% control at 400 ppm) | – | –
Fc1cccc2c(NCCc3ccccc3)cc(Cl)nc12 [Example 116, 2-chloro-8-fluoro-N-(2-phenylethyl)-4-quinolinamine] | - (0-19% control at 400 ppm) | 0 | – | +++ (90-100% control at 100 ppm) | + (20-89% control at 400 ppm) | 0 | – | - (0-19% control at 400 ppm) | +++ (90-100% control at 100 ppm) | 0 | – | + (20-89% control at 400 ppm) | + (20-89% control at 400 ppm) | 0 | – | - (0-19% control at 400 ppm) | – | –
